For experiment [1], the system named is RAW264.7 macrophages. The experiment is described as follows: Macrophage proliferation (CCK-8 viability of LPS-stimulated RAW264.7 cells). The format is cell-based. The protocol:
(§1) RAW264.7 macrophages were purchased from the National Collection of Authenticated Cell Cultures (Shanghai, China). The cell culture medium was supplemented with 10% fetal bovine serum and 100 U/mL penicillin and 100 μg/mL streptomycin in DMEM culture medium.
The viability of RAW264.7 cells was measured by Cell Counting Kit (CCK-8). Briefly, RAW264.7 cells were plated into 96-well plates at a density of 5×10^4 cells/well and incubated at 37 °C, 5% CO2 for 24 hours. Next the cells were exposed to 1 μg/mL lipopolysaccharides (LPS) for 24 hours to induce an inflammatory response by the RAW264.7 cells. Subsequently, the cells were exposed to different combinations of test ingredients for 24 hours. For the control, the cells were stimulated with LPS for 24 hours, followed by 24 hours with medium only. […] The absorbance was recorded on an automatic microplate reader with an […] of 450 nm. The higher the measured value, the higher the number of viable cells.
The macrophage proliferation is expressed as a percentage compared to the control (LPS only) which was set to 100%. […]
For this evaluation, the concentration at which each test ingredient provided an equivalent effect on macrophage proliferation was determined.
A combination of two compounds was considered as having synergy if both values, as calculated according to formulas 1a and 1b below, were higher than 1. […]

In experiment [2] the test system is RAW264.7 macrophages. In words: ROS production (DCFH-DA probe in LPS-stimulated RAW264.7 cells). The format is cell-based. The note with it: Mus musculus, 10 μg/mL, relative to control (LPS only) set to 100%. Here is the method:
as §1
The accumulation of ROS was assessed by the radical probe DCFH-DA. At the beginning, RAW264.7 cells were seeded in 6-well plate at 1×10^6 cells/well for 24 hours followed by a 24 hour exposure to LPS to induce an inflammatory response by the RAW264.7 cells. Subsequently, the cells were exposed to different combinations of test ingredients. For the control, the cells were stimulated with LPS for 24 hours, followed by 24 hour with medium only. All experiments were performed in triplicate. […] After incubation at 37 °C for 20 minutes in the dark, the cells were washed and lysed to release intracellular DCF and the fluorescence intensity was detected at 488 nm excitation and 525 nm emission using a microplate spectrofluorometer. The higher the measured value, the higher the level of ROS.
A combination of two compounds was considered as having synergy if both values, as calculated according to formulas 1a and 1b below, were higher than 1. […] If a combination of three compounds were to be evaluated, a similar logic is applied, but the assessed concentration in the combination is divided by 3 and three comparisons are made. […]

Take `O=C(O)c1cc(C(=O)O)c2c(n1)C(=O)C(=O)c1cc(C(=O)O)[nH]c1-2` [PQQ, Pyrroloquinoline quinone]: the activity at 10 µg/mL in experiment [1] (Mus musculus, RAW264.7, 24 h, Example 2, 10 μg/mL, relative to control (LPS only) set to 100%) turned out to be 142 ± 14.1%; in experiment [2] it was 62.8 ± 5.3%. In addition, in experiment [1] (Table 4, LPS-stimulated RAW264.7 cells), the “Concentration that provided an equivalent effect on macrophage proliferation” value was determined as 10 µg/mL.
